Measured values published in ChEMBL document CHEMBL4507279, “Data for DCP probe BI-9627” (2021).

Columns and labels:
[1] = target: 1-phosphatidylinositol 3-phosphate 5-kinase (Homo sapiens) (UniProt Q9Y2I7); conditions: Compound concentration 1000.0 nM
[2] = test system: Receptor-type tyrosine-protein kinase FLT3 (Homo sapiens), P36888 [UNDEFINED MUTATION]; conditions: Compound concentration 1000.0 nM
[3] = target: Ribosomal protein S6 kinase alpha-3 (Homo sapiens) (UniProt P51812); conditions: Compound concentration 1000.0 nM
Sequence of Ribosomal protein S6 kinase alpha-3 (Homo sapiens) (P51812 whole entry): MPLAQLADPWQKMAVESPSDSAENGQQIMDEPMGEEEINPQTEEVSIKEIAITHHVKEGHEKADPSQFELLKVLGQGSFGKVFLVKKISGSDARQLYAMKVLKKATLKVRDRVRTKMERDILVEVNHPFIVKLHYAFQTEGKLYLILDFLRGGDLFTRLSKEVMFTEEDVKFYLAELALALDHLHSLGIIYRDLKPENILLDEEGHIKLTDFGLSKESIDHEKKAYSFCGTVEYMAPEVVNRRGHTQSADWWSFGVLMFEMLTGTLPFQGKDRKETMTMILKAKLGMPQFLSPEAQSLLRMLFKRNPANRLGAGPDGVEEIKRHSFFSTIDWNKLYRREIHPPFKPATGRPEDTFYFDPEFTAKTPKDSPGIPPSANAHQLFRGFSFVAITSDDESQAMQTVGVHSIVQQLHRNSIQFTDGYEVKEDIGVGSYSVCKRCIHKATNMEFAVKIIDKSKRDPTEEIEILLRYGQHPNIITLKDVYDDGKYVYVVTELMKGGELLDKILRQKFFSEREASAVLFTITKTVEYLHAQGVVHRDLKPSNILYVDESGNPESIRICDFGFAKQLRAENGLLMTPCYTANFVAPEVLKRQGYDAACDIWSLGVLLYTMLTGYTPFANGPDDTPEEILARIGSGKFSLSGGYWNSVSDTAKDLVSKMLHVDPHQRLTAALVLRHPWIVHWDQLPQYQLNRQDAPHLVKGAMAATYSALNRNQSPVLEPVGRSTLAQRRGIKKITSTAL

[4] = target: Cyclin-dependent kinase 19 (Homo sapiens) (UniProt Q9BWU1); conditions: Compound concentration 1000.0 nM
[5] = target: Maternal embryonic leucine zipper kinase (Homo sapiens) (UniProt Q14680); conditions: Compound concentration 1000.0 nM
[6] = target: MAP/microtubule affinity-regulating kinase 4 (Homo sapiens) (UniProt Q96L34); conditions: Compound concentration 1000.0 nM
[7] = target: Bone morphogenetic protein receptor type-1B (Homo sapiens) (UniProt O00238); conditions: Compound concentration 1000.0 nM
[8] = target: Mitogen-activated protein kinase 8 (Homo sapiens) (UniProt P45983); conditions: Compound concentration 1000.0 nM
Sequence of Mitogen-activated protein kinase 8 (Homo sapiens) (P45983 whole entry): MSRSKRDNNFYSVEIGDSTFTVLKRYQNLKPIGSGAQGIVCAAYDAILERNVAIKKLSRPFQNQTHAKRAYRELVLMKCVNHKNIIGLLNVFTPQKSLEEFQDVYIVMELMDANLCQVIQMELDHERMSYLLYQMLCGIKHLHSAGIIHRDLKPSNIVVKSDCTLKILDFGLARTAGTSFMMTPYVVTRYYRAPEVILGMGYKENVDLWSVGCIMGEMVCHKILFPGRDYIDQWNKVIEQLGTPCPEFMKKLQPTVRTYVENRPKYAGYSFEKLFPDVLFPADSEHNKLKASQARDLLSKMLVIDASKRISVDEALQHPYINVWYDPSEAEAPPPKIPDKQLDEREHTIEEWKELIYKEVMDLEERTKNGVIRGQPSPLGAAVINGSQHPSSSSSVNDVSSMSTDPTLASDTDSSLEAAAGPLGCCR

[9] = target: Calcium/calmodulin-dependent protein kinase type II subunit gamma (Homo sapiens) (UniProt Q13555); conditions: Compound concentration 1000.0 nM
[10] = test system: Mast/stem cell growth factor receptor Kit (Homo sapiens), P10721 [V559D,V654A]; conditions: Compound concentration 1000.0 nM
[11] = test system: Phosphatidylinositol 4,5-bisphosphate 3-kinase catalytic subunit alpha isoform (Homo sapiens), P42336 [Q546K]; conditions: Compound concentration 1000.0 nM
[12] = target: Sodium-dependent serotonin transporter (Homo sapiens) (UniProt P31645); conditions: Compound concentration 10.0 uM
[13] = target: Receptor tyrosine-protein kinase erbB-2 (Homo sapiens) (UniProt P04626); conditions: Compound concentration 1000.0 nM
[14] = target: Cyclin-dependent kinase 9 (Homo sapiens) (UniProt P50750); conditions: Compound concentration 1000.0 nM
[15] = target: Myotonin-protein kinase (Homo sapiens) (UniProt Q09013); conditions: Compound concentration 1000.0 nM
Sequence of Myotonin-protein kinase (Homo sapiens) (Q09013 whole entry): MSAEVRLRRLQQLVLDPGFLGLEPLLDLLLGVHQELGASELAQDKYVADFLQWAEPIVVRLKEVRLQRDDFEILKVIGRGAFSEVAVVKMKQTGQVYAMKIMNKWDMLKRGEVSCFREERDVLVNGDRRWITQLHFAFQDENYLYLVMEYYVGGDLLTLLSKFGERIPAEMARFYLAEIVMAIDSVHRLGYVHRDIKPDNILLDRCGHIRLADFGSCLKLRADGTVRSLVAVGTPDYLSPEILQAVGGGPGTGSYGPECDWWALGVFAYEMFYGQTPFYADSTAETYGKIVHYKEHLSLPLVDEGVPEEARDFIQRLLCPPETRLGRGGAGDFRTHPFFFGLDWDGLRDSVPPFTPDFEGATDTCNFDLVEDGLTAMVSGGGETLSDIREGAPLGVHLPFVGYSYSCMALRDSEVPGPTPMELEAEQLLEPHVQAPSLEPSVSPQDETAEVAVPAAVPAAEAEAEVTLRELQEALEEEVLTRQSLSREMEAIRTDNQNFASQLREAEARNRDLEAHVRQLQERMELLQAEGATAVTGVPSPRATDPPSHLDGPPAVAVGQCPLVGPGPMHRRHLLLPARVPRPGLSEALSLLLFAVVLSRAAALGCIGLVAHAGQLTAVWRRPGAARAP

[16] = target: ALK tyrosine kinase receptor (Homo sapiens) (UniProt Q9UM73); conditions: Compound concentration 1000.0 nM
[17] = target: Ephrin type-A receptor 7 (Homo sapiens) (UniProt Q15375); conditions: Compound concentration 1000.0 nM
[18] = target: Myosin light chain kinase family member 4 (Homo sapiens) (UniProt Q86YV6); conditions: Compound concentration 1000.0 nM
[19] = target: Cyclin-dependent kinase 3 (Homo sapiens) (UniProt Q00526); conditions: Compound concentration 1000.0 nM
[20] = target: Proto-oncogene tyrosine-protein kinase Src (Homo sapiens) (UniProt P12931); conditions: Compound concentration 1000.0 nM
[21] = target: Protein-tyrosine kinase 2-beta (Homo sapiens) (UniProt Q14289); conditions: Compound concentration 1000.0 nM
Sequence of Protein-tyrosine kinase 2-beta (Homo sapiens) (Q14289 whole entry, looked up): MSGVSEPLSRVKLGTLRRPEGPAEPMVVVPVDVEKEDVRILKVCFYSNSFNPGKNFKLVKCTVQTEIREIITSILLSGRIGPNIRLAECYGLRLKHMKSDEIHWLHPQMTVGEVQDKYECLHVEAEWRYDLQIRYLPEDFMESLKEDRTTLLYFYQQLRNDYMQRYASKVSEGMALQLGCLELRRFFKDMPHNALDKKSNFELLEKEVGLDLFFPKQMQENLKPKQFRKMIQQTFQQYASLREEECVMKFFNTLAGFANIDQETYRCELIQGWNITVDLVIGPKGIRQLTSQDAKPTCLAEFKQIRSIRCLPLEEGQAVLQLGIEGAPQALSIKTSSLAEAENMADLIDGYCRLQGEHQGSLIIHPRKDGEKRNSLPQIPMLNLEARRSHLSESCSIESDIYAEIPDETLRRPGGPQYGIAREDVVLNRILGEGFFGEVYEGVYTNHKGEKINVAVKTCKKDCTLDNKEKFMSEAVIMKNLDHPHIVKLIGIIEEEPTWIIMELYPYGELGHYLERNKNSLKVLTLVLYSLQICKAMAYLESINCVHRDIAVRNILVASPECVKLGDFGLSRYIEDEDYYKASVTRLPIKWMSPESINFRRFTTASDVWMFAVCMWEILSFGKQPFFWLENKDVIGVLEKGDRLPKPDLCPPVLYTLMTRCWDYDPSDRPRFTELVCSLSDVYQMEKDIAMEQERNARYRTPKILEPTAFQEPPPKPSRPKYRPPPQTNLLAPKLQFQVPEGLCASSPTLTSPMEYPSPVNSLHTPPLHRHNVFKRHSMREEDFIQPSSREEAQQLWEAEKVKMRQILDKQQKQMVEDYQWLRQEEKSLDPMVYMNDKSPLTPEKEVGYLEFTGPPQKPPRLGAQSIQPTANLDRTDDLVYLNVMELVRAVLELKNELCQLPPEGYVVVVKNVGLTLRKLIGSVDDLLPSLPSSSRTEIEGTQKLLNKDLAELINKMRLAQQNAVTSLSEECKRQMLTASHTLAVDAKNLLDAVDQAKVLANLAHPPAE

[22] = target: Serine/threonine-protein kinase N1 (Homo sapiens) (UniProt Q16512); conditions: Compound concentration 1000.0 nM
[23] = test system: Epidermal growth factor receptor (Homo sapiens), P00533 [UNDEFINED MUTATION]; conditions: Compound concentration 1000.0 nM
[24] = target: Phosphatidylinositol 3-kinase catalytic subunit type 3 (Homo sapiens) (UniProt Q8NEB9); conditions: Compound concentration 1000.0 nM
[25] = target: Ephrin type-B receptor 3 (Homo sapiens) (UniProt P54753); conditions: Compound concentration 1000.0 nM
[26] = target: Serine/threonine-protein kinase TAO3 (Homo sapiens) (UniProt Q9H2K8); conditions: Compound concentration 1000.0 nM
[27] = target: Serine/threonine-protein kinase Nek5 (Homo sapiens) (UniProt Q6P3R8); conditions: Compound concentration 1000.0 nM
[28] = test system: Tyrosine-protein kinase ABL1 (Homo sapiens), P00519 [Q252H]; conditions: Compound concentration 1000.0 nM
[29] = target: Serine/threonine-protein kinase NIM1 (Homo sapiens) (UniProt Q8IY84); conditions: Compound concentration 1000.0 nM
[30] = target: Serine/threonine-protein kinase WNK2 (Homo sapiens) (UniProt Q9Y3S1); conditions: Compound concentration 1000.0 nM
Sequence of Serine/threonine-protein kinase WNK2 (Homo sapiens) (Q9Y3S1 whole entry, canonical isoform): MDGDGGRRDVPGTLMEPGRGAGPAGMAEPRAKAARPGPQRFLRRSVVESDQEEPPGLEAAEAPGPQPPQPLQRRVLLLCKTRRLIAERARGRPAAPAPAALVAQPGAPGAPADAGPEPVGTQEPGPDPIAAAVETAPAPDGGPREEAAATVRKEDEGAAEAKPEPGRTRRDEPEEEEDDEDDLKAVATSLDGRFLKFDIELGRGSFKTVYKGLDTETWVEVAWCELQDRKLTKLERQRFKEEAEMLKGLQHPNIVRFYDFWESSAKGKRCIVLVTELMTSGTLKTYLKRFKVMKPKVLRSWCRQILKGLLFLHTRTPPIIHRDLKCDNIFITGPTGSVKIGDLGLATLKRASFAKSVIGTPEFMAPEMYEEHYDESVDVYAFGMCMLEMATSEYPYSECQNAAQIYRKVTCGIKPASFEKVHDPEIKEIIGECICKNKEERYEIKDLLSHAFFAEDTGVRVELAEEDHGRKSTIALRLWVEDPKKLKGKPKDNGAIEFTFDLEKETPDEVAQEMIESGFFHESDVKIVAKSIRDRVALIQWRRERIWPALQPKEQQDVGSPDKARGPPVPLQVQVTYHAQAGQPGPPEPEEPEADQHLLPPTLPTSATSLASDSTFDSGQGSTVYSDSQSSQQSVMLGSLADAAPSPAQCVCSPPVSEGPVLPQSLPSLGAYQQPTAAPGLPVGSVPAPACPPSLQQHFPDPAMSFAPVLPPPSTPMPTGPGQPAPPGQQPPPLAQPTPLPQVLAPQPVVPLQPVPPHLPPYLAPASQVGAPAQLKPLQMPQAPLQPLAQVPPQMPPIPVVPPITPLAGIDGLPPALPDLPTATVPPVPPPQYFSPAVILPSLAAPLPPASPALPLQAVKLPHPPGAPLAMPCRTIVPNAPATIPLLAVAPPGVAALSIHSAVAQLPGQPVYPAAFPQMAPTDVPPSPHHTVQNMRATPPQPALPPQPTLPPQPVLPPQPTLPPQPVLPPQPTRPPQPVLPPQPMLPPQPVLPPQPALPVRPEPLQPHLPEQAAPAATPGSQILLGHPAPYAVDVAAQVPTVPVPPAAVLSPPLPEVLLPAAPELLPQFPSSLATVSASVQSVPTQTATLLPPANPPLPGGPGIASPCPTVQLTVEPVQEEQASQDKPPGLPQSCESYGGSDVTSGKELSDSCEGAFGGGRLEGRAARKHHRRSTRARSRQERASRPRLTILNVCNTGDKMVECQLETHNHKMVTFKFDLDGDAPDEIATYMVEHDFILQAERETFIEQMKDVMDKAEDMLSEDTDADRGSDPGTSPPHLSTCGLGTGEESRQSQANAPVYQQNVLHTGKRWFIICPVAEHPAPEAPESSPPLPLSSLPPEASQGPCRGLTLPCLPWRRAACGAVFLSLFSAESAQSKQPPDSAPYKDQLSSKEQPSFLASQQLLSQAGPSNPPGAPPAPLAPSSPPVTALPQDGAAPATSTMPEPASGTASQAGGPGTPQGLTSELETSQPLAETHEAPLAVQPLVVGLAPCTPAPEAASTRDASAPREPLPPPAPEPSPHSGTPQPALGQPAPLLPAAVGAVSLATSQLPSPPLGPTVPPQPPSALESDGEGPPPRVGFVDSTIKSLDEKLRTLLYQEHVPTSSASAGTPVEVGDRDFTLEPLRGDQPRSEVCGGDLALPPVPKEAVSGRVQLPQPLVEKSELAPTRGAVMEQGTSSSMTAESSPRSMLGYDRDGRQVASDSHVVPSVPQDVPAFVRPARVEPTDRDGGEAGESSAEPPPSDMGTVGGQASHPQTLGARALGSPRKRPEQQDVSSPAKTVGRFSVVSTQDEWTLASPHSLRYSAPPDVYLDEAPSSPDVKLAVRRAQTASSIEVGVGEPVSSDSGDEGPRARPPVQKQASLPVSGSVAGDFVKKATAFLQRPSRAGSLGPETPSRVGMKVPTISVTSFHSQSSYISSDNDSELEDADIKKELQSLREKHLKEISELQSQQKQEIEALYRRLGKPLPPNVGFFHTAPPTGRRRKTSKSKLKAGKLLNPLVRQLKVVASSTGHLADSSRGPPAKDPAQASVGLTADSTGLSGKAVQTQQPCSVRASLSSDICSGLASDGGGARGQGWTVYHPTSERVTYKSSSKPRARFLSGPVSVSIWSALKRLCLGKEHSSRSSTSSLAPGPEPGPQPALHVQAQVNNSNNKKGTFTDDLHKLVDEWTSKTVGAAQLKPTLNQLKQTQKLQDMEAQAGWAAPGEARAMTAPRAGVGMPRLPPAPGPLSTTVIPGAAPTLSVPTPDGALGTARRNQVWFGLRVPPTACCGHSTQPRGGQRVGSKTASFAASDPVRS

[31] = test system: Phosphatidylinositol 4,5-bisphosphate 3-kinase catalytic subunit alpha isoform (Homo sapiens), P42336 [E545K]; conditions: Compound concentration 1000.0 nM
[32] = target: Serine/threonine-protein kinase LATS2 (Homo sapiens) (UniProt Q9NRM7); conditions: Compound concentration 1000.0 nM
[33] = target: Serine/threonine-protein kinase ULK1 (Homo sapiens) (UniProt O75385); conditions: Compound concentration 1000.0 nM
[34] = target: Serine/threonine-protein kinase 36 (Homo sapiens) (UniProt Q9NRP7); conditions: Compound concentration 1000.0 nM
[35] = test system: Tyrosine-protein kinase ABL1 (Homo sapiens), P00519 [H396P]; conditions: Compound concentration 1000.0 nM
[36] = test system: Tyrosine-protein kinase ABL1 (Homo sapiens), P00519 [F317L]; conditions: Compound concentration 1000.0 nM
[37] = test system: Receptor-type tyrosine-protein kinase FLT3 (Homo sapiens), P36888 [R834Q]; conditions: Compound concentration 1000.0 nM
[38] = target: LIM domain kinase 2 (Homo sapiens) (UniProt P53671); conditions: Compound concentration 1000.0 nM
[39] = target: Calcium/calmodulin-dependent protein kinase type IV (Homo sapiens) (UniProt Q16566); conditions: Compound concentration 1000.0 nM
[40] = target: Delta-type opioid receptor (Homo sapiens) (UniProt P41143); conditions: Compound concentration 10.0 uM
[41] = target: Insulin receptor-related protein (Homo sapiens) (UniProt P14616); conditions: Compound concentration 1000.0 nM
[42] = test system: Epidermal growth factor receptor (Homo sapiens), P00533 [L858R]; conditions: Compound concentration 1000.0 nM
[43] = target: Myosin light chain kinase, smooth muscle (Homo sapiens) (UniProt Q15746); conditions: Compound concentration 1000.0 nM
[44] = target: Dual specificity tyrosine-phosphorylation-regulated kinase 1B (Homo sapiens) (UniProt Q9Y463); conditions: Compound concentration 1000.0 nM

CC(=O)N1CCC(c2ccc(C(=O)NC3=NCCN3)cc2C(F)(F)F)CC1 [BI 0054]
active: residual activity [44] 37%
inactive: residual activity [1] 88% | residual activity [2] 100% | residual activity [3] 100% | residual activity [4] 100% | residual activity [5] 100% | residual activity [6] 100% | residual activity [7] 89% | residual activity [8] 84% | residual activity [9] 100% | residual activity [10] 100% | residual activity [11] 100% | inhibition [12] 11.8% | residual activity [13] 100% | residual activity [14] 84% | residual activity [15] 100% | residual activity [16] 89% | residual activity [17] 99% | residual activity [18] 100% | residual activity [19] 100% | residual activity [20] 99% | residual activity [21] 100% | residual activity [22] 100% | residual activity [23] 100% | residual activity [24] 88% | residual activity [25] 93% | residual activity [26] 87% | residual activity [27] 100% | residual activity [28] 88% | residual activity [29] 100% | residual activity [30] 100% | residual activity [31] 87% | residual activity [32] 91% | residual activity [33] 85% | residual activity [34] 83% | residual activity [35] 100% | residual activity [36] 95% | residual activity [37] 100% | residual activity [38] 98% | residual activity [39] 92% | inhibition [40] -0.82% | residual activity [41] 81% | residual activity [42] 100% | residual activity [43] 90%

CC(=O)N1CCC(c2ccc(C(=O)NC(=N)N)cc2C(F)(F)F)CC1 [BI 9627]
active: residual activity [44] 45%
inactive: residual activity [1] 84% | residual activity [2] 91% | residual activity [3] 95% | residual activity [4] 100% | residual activity [5] 100% | residual activity [6] 100% | residual activity [7] 100% | residual activity [8] 73% | residual activity [9] 100% | residual activity [10] 100% | residual activity [11] 100% | inhibition [12] 21.4% | residual activity [13] 92% | residual activity [14] 100% | residual activity [15] 100% | residual activity [16] 93% | residual activity [17] 100% | residual activity [18] 100% | residual activity [19] 100% | residual activity [20] 100% | residual activity [21] 100% | residual activity [22] 87% | residual activity [23] 100% | residual activity [24] 100% | residual activity [25] 97% | residual activity [26] 86% | residual activity [27] 100% | residual activity [28] 79% | residual activity [29] 100% | residual activity [30] 98% | residual activity [31] 76% | residual activity [32] 100% | residual activity [33] 100% | residual activity [34] 100% | residual activity [35] 60% | residual activity [36] 92% | residual activity [37] 93% | residual activity [38] 91% | residual activity [39] 93% | inhibition [40] -5.35% | residual activity [41] 100% | residual activity [42] 100% | residual activity [43] 90%
